This note sets out measurements from ChEMBL document CHEMBL1158918, “Novel marine sponge amino acids, 10. Xestoaminols from Xestospongia sp” (1990).

A short description of experiment [1]: Inhibition of reverse transcriptase at 1 mg/ml. Details: scale not given: the % may be the effect or the level left.
Experiment [2] relates to Staphylococcus aureus. The experiment can be described thus: Antimicrobial activity against Staphylococcus aureus at 100 ug/disk. The experiment is classed as functional. To be noted: read-out: IZ.
The test system of experiment [3] is Streptococcus pyogenes. The experiment can be described thus: Antimicrobial activity against Streptococcus pyogenes at 100 ug/disk. The experiment is classed as functional. To be noted: read-out: IZ.
For experiment [4], the system named is Escherichia coli. The experiment can be described thus: Antimicrobial activity against Escherichia coli at 100 ug/disk. The experiment is classed as functional. To be noted: read-out: IZ.
Experiment [5] has as its system Candida albicans. The experiment can be described thus: Antimicrobial activity against Candida albicans at 100 ug/disk. The experiment is classed as functional. To be noted: read-out: IZ.
The test system of experiment [6] is Trichophyton mentagrophytes. The experiment can be described thus: Antimicrobial activity against Trichophyton mentagrophytes at 100 ug/disk. The experiment is classed as functional. To be noted: read-out: IZ.
The subject of experiment [7] is Nippostrongylus brasiliensis. The experiment can be described thus: Antihelminthic activity against Nippostrongylus brasiliensis 4 instar larvae assessed as reduction in motility at 50 ug/mL. Details: scale not given: the % may be the effect or the level left. The format is functional.
For experiment [8], the system named is Nippostrongylus brasiliensis. The experiment can be described thus: Antihelminthic activity against Nippostrongylus brasiliensis 4 instar larvae assessed as reduction in viability at 50 ug/mL. The experiment is classed as functional.
Experiment [9] relates to Nippostrongylus brasiliensis. The experiment can be described thus: Antihelminthic activity against Nippostrongylus brasiliensis 4 instar larvae assessed as reduction in cast formation at 50 ug/mL. Details: scale not given: the % may be the effect or the level left. The format is functional.
Experiment [10] has as its system Candida albicans. The experiment can be described thus: Antimicrobial activity against Candida albicans at 10 ug/disk. Conditions: read-out: IZ.
For experiment [11], the system named is Trichophyton mentagrophytes. In words: Antimicrobial activity against Trichophyton mentagrophytes at 10 ug/disk. Conditions: read-out: IZ. The experiment is classed as functional.
For experiment [12], the system named is Streptococcus pyogenes. In words: Antimicrobial activity against Streptococcus pyogenes at 10 ug/disk. The format is functional, organism-based.

For the compound `CCCCCCCCCCC[C@@H](O)[C@H](C)N` (relative stereo), in [1], the Activity came to 95%.

Regarding `CC/C=C/CCCCCCC[C@@H](O)[C@H](C)N` (relative stereo) [XETOAMINOL A], the zone of inhibition at 100 µg/disc in experiment [2] was found to be 3 mm; in experiment [3], 4 mm; in [4], 7 mm; in experiment [5], 7 mm; in [6], 13 mm. Further, the Activity came out at 97% in experiment [1], 100% in experiment [7], 100% in experiment [8] and 90% in [9].

`Clc1ccc(COC(Cn2ccnc2)c2ccc(Cl)cc2Cl)c(Cl)c1` (stereo not drawn) [MICONAZOLE]: the zone of inhibition at 10 µg/disc in [10] was 10 mm; in experiment [11] it was 11 mm.

On to GENTAMICIN, for which the inhibition zone (IZ) in [12] turned out to be 10 mm.
